pIC50: −log10 of the molar value. In brackets after ≈: the same amount, converted by molar mass. Several values for one entry are separate records, joined by “and”; a condition that tells them apart may be missing. Identical values can stand only once. Each block holds one molecule with its values, some of them ahead of it.
Key:
LogD7.4 = format: physicochemical; settings: pH 7.4
Axl [1] = target: T1, Axl (Homo sapiens, UniProt P30530); settings: 1 μM
[2] = 200 mg/kg BID, C57BL/6 J mice, 28 days
Protocol: (§1) All in vivo experimental procedures were conducted in accordance with United Kingdom legislation (Animals (Scientific Procedures) Act, 1986) and were compliant with the ARRIVE guidelines. 6–7-week-old female (20–25 g) C57BL/6 J mice (Charles River Laboratories Ltd, UK) were acclimatized to the facility for 10 days and then randomized to groups based on bodyweight; vehicle control (n = 6, animals 1–6) and MERTK inhibitor treatment (n = 9, animals 7–15). Animals were treated via oral gavage with vehicle control (60% v/v 0.1 M HCl, 20% v/v PEG 400, 20% v/v purified water pH 3.5–4.5) or AZ14145845 (200 mg/kg). All animals were dosed twice daily with a dose volume of 10 mL/kg for 28 days, with the final dose being administered on the morning of Day 29. The dose interval between the first and second dose on each day was 8 h. […] Samples for histopathology were taken from 6 controls (animals 1–6), 8 treated animals (animals 7–11, 13–15) and for electron microscopy from 1 control (animal no. 1) and 3 treated animals (animals 8–10) and for MSI from 3 treated animals (animals 13–15).
A whole blood sample (32 µL) was collected via a tail vein prick into a K2-EDTA treated capillary tube, centrifuged at 1500g for 10 min at 4 °C, and plasma collected using a micropipette (non-EDTA Ref.no. 172292, Vitrex Medical A/S, Denmark). Samples were collected on Day 1 at 30 min, 2-h, 8-h (pre-second dose) and 24-h post the first dose. On days 7, 28, 29 samples were collected at 2-h post the first dose and at 8-h pre the second dose.

[3] = Mouse plasma protein binding; format: in vitro ADME
retina [4] = test: Retinal histopathology (H&E light microscopy) in 28 day mouse safety study; format: in vivo, C57BL/6 J mice
Mouse pharmacokinetics = format: in vivo
hERG = hERG (Homo sapiens, UniProt Q12809); settings: read-out: hERG
Sequence of hERG (Q12809 whole entry, the tested form may be a part): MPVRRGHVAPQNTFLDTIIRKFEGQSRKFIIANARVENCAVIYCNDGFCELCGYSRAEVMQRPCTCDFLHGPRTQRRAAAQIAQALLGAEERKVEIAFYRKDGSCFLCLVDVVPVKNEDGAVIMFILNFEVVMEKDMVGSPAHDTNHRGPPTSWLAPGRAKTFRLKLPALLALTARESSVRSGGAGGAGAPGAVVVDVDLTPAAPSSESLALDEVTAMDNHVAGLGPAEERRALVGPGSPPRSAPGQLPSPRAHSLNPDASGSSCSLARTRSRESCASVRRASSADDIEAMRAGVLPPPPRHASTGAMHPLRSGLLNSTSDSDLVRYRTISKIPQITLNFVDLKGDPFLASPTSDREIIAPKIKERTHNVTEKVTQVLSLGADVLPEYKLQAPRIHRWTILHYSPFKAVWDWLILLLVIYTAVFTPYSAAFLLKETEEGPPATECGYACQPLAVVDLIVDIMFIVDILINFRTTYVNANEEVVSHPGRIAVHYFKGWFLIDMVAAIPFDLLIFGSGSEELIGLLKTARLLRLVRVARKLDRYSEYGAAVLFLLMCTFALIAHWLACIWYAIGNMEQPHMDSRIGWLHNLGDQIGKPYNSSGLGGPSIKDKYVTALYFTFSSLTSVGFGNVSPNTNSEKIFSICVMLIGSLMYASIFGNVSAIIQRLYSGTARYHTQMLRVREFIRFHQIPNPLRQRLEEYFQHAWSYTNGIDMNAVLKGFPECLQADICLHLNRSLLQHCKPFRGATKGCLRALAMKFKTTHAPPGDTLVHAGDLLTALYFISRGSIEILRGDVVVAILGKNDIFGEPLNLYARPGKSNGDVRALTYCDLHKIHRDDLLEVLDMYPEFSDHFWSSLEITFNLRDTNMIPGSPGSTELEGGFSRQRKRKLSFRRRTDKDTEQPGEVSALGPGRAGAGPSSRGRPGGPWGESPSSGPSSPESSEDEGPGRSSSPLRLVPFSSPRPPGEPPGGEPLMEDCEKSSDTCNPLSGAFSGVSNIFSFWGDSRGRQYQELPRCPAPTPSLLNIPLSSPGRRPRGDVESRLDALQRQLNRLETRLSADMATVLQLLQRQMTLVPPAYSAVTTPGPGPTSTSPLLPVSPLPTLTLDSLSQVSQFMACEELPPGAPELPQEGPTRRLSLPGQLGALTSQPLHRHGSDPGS

[5] = Ocular exposure in the rat (melanin binding); format: in vivo; settings: for eye partition coefficient (Kp): iv infusion 2 μmol/kg/h, 4-h post infusion
Protocol: Male pigmented Long Evans and non-pigmented Han Wistar rats were treated via intravenous infusion of AZ14145845 at a dose of 2 μmol/kg/h in a TEG:DMA:H2O (1:1:1) formulation, dose volume 4 mL/kg. At 4-h post the 15-min intravenous infusion, the animals were killed and the eyes extracted and homogenized to determine the concentration of AZ14145845 in the eye.

[6] = MALDI mass spectrometry imaging of whole eye sections (quantitative MSI); format: in vivo, C57BL/6 J mice
Protocol: as §1

macrophage efferocytosis = test: Macrophage efferocytosis assay; format: cell-based
[7] = system: ARPE19, human retinal epithelial cells; test: Phagocytosis of photoreceptor outer segments (POS) in human retinal cells; format: cell-based; settings: 3 μM, 6-h incubation, FITC-labeled POS
Protocol: ARPE19, human retinal epithelial cells, were cultured in Dulbecco’s modified Eagle’s medium (DMEM/F12, supplemented with 10% fetal bovine serum). All culture materials were purchased from Thermo Fisher Scientific. Cells were seeded at 10,000 cells per well in CellCarrier imaging plates (Perkin Elmer) and cultured for up to 6 weeks to allow for polarization of the cell layer. On the day of treatment cells were washed three times in PBS and then incubated in serum free conditions with FITC-labeled POS at a concentration of 10 POS/cell and either DMSO or 3 μM of AZ14145845 in DMSO. Following incubation for 6 h, cells were washed with PBS to remove non-internalized POS and fixed in 4% PFA. Following staining of nuclei with Hoechst, cells were imaged using a […] ImageExpress Confocal microscope. Each well was imaged at 20 × with 16 images taken per well. Analysis modules were written using the custom module editor of MetaXpress vers 6.5.4.532. Nuclei were segmented and enumerated using the embedded count nuclei module. Individual POS particles were segmented and counted on a per image basis using the same custom module. Data are expressed as fold change in total POS per cell over control. Experiments were carried out a minimum of 3 times.

[8] = Bodyweight and tolerability in 28 day mouse safety study; settings: day 5 onwards, remainder of the study
Protocol: as §1

retina [9] = settings: mouse, in vivo
Protocol: as §1

[10] = Human plasma protein binding; format: in vitro ADME
Mer = Mer (Homo sapiens, UniProt Q12866)
Sequence of Mer (Q12866 21-999): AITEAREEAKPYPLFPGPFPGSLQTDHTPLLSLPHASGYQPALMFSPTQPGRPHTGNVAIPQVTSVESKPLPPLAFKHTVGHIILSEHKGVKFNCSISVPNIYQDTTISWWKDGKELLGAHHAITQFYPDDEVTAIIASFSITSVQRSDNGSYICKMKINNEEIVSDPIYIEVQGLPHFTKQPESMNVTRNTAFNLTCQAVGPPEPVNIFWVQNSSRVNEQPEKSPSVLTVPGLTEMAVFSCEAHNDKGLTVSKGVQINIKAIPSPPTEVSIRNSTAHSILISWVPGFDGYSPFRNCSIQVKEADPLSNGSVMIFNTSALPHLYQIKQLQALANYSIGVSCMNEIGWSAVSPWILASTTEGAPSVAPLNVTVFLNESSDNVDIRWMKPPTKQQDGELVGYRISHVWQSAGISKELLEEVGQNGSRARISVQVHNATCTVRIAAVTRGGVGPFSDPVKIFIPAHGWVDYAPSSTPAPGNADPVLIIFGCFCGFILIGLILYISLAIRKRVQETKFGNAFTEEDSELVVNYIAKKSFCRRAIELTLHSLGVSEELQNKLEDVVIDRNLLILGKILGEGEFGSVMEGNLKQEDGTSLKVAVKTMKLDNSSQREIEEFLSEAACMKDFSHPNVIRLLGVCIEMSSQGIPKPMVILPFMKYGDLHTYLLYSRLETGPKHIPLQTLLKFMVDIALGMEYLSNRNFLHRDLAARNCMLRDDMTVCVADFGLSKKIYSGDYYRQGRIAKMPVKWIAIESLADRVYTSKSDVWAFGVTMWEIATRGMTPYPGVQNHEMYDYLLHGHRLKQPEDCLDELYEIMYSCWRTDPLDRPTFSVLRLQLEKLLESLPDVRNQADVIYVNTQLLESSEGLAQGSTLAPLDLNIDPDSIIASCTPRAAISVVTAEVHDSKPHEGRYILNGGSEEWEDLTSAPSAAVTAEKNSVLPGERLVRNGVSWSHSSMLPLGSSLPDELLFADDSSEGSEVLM
Protocol: (§2) Biochemical assays for Mer, Axl, Tyro3 and Flt3 were performed using a Rapidfire LCMS method as previously described (Nissink et al. [2021]). Cellular assays for pMer, pAxl, pTyro3, pFLT3 were performed in transiently transfected Cos-7 (Monkey: African green) cell lines as previously described. The macrophage efferocytosis assay was performed as previously described (Clark et al. [2019]).

Flt3 = Flt3 (Homo sapiens, UniProt P36888)
Sequence of Flt3 (P36888 27-993): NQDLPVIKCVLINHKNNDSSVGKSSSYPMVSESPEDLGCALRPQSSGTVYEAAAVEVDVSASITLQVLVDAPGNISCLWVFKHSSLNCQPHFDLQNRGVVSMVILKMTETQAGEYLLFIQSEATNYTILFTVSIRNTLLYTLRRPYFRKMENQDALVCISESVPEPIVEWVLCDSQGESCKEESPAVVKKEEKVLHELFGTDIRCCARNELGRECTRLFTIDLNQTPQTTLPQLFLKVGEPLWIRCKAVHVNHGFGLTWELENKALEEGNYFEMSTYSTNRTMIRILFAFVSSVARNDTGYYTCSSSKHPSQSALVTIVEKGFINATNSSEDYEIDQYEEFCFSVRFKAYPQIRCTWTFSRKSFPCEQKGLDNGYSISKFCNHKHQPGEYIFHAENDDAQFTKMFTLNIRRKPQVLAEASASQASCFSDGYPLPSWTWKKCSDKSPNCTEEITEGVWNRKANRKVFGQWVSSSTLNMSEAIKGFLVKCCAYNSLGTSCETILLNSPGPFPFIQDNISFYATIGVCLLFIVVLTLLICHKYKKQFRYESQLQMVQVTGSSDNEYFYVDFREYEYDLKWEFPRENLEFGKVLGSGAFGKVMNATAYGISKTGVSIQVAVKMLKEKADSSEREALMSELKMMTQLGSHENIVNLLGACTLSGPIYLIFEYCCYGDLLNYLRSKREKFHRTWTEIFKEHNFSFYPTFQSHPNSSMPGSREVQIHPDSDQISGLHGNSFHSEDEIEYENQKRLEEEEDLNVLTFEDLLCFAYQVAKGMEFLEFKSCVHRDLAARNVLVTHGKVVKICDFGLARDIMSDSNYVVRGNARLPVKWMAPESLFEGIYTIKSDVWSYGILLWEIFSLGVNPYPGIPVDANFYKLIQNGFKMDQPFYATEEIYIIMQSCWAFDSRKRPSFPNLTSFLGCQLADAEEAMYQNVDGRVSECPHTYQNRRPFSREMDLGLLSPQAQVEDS
Protocol: as §2

Axl [11] = target: T1, Axl
Protocol: as §2

MERTK = MERTK (Homo sapiens, UniProt Q12866); settings: 1 μM
Sequence of MERTK (Q12866 21-999): as the sequence (Q12866 21-999) above

MAP4K5 (KHS1) = MAP4K5 (KHS1) (Homo sapiens, UniProt Q9Y4K4); settings: 1 μM
Sequence of MAP4K5 (KHS1) (Q9Y4K4 whole entry): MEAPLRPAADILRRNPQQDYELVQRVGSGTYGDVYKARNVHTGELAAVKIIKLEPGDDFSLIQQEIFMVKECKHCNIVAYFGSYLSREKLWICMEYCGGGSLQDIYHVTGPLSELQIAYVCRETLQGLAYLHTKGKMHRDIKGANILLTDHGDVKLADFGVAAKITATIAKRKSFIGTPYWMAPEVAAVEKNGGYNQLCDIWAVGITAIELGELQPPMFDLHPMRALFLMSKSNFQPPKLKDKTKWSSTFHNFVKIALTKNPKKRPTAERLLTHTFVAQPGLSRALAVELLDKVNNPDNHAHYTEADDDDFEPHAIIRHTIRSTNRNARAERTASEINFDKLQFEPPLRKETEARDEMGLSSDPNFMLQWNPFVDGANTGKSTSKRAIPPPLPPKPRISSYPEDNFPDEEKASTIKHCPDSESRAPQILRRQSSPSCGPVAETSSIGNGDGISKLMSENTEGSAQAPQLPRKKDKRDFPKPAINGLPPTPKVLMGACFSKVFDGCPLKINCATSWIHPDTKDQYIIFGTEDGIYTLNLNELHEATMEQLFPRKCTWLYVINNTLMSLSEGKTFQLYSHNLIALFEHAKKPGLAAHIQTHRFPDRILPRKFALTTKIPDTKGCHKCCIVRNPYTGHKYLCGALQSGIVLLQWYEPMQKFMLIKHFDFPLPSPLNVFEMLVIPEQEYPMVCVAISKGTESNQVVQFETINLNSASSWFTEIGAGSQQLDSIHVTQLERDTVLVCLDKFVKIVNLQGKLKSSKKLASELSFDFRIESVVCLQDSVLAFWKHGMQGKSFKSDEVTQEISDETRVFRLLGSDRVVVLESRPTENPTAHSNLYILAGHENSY

[12] = CaCo2 permeability and efflux; format: in vitro ADME
Solubility = format: physicochemical
[13] = system: Mer kinase Ba/F3 xenograft; settings: 200 mg/kg, ref McCoull et al. [2021]; cited from earlier work
HLM intrinsic clearance = format: in vitro ADME, human
retina [14] = settings: mouse, cited from earlier work
[15] = animals 13-15, 200 mg/kg BID 28 days

T1 sequence (P30530 26-894): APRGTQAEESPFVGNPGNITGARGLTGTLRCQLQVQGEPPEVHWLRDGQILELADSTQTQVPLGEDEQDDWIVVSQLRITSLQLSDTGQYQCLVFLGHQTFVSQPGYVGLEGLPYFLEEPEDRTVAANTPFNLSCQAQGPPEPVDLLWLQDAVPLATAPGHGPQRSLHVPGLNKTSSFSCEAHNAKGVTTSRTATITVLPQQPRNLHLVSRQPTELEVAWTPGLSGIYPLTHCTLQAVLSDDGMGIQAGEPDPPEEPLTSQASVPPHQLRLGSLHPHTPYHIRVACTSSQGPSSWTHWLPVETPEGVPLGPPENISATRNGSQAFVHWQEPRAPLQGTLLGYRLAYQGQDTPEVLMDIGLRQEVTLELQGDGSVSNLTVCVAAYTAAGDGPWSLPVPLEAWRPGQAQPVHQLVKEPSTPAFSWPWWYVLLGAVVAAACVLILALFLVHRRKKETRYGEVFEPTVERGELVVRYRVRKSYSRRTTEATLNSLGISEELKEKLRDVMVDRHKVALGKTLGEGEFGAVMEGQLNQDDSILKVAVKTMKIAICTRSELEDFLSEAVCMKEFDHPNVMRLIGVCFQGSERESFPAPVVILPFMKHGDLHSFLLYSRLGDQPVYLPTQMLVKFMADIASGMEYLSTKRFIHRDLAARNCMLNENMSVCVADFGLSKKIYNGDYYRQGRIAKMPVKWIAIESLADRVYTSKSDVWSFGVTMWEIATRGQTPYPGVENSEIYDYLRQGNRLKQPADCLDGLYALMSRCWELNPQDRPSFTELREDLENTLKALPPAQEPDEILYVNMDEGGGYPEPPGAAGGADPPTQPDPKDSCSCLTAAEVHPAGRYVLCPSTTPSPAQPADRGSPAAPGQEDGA

LogD7.4 (LogD7.4): 2.9
inhibition of AXL in kinome profiling (Axl [1]): > 90%
accumulation in plasma [2]: no accumulation was observed
average free cover over MERTK Cos-7 cell IC50 at Cmax [2]: 90 fold
average free cover over MERTK Cos-7 cell IC50 at Cmin [2]: 21 fold
Mouse PPB (% free) [3]: 7.6 % free
bioavailability (Mouse pharmacokinetics; mouse): 15%
clearance (Mouse pharmacokinetics; mouse): 44 mL/min/kg
volume of distribution at steady state (Mouse pharmacokinetics; mouse): 3.7 L/kg
dose dependence of Cmax and AUC (Mouse pharmacokinetics; up to 200 mg/kg): Dose linear increase
difference in eye Kp, pigmented vs non-pigmented rats ([5]; assumed consequence of melanin binding): ~ ten-fold
eye partition coefficient (Kp) ([5]; non-pigmented Han Wistar rat): 2.5
eye partition coefficient (Kp) ([5]; pigmented Long Evans rat): 19
A2E (RPE marker) in the posterior part of the eye by MSI ([6]; animal no. 14 compared to animals no. 13 and 15): dramatic decrease
Total concentration in the anterior region of the eye (QMSI) [6, 15]: ~ 11 µM
Total concentration in the posterior region of the eye (QMSI) [6, 15]: ~ 9 µM
Total concentration in the whole eye (QMSI) [6, 15]: ~ 3 µM
Efferocytosis (pIC50) (macrophage efferocytosis): 7.6
Human PPB (% free) [10]: 14 % free
Mer enzyme (pIC50) (Mer): 9.0
Mer cell (pIC50) (Mer; Cos-7 cell): 7.7 and 7.8
Flt3 enzyme (pIC50) (Flt3): < 4.5/ < 4.5
Flt3 cell (pIC50) (Flt3; Cos-7 cell): < 4.5/ < 4.5
Axl enzyme (pIC50) (Axl [11]): 7.9
Axl cell (pIC50) (Axl [11]; Cos-7 cell): 7.0
inhibition of MERTK in kinome profiling (MERTK): > 90%
inhibition of MAP4K5 (KHS1) in kinome profiling (MAP4K5 (KHS1)): > 75%
CaCo2 efflux ratio [12]: 10
Solubility (Solubility): 938 µM (≈ 527 µg/mL)
HLM CLint (HLM intrinsic clearance): 195 µL/min/mg protein
SMILES: Cc1cc(-c2c(C)nn(C)c2C)cnc1-c1nnc(N(C)Cc2ccc3ncc(-c4ccc(CN(C)C)cc4)n3c2)o1 [AZ14145845]
Total of any retinal degeneration/atrophy (of number examined) (retina [4]; 200 mg/kg BID, 28 days, one eye per mouse): 4 of 8
length of the retina affected by focal lesion (retina [4]; animal no. 10, lesion midway between optic nerve and peripheral limit): approximately 25%
extent of retina affected (retina [4]; animal no. 14, most severe microscopic changes): entire length of retina
length of the retina affected by focal lesions (retina [4]; animal numbers 8 and 9, lesions towards the periphery of the retina): approximately 20%
Number of animals with no H&E findings (retina [4]; n = 8 treated mice, 200 mg/kg BID, 28 days, one eye per mouse, 200 mg/kg): four of the eight and 4
Moderate retinal degeneration/atrophy (number of animals) (retina [4]; n = 8 treated mice, diffuse distribution, animal 14): 1 with diffuse distribution
Minimal retinal degeneration/atrophy (number of animals) (retina [4]; n = 8 treated mice, focal distribution, animals 8, 9, 10): 3 with focal distribution
pIC50 (hERG): 5.24
ocular distribution by MSI ([6]; whole eye sections, 20 µm spatial resolution): largely localized in the pigmented retinal tissues of the RPE and choroid layers
drop in the number of internalized POS [7]: ~60%
weight gain above baseline [8]: 3–6%
ultra-structural findings by TEM (retina [9]): ultra-structural changes at the interface between the POS and the RPE
efficacy in xenograft tumor model [13]: showed efficacy

SMILES: CCCCNc1ncc2c(-c3ccc(F)cc3)nn(CC3CCC(N)CC3)c2n1 (stereo not shown) [UNC-569]
electron microscopic evaluation of the retina (retina [14]; in vivo): accumulation of membrane-bound multi-lamellated bodies in the RPE cells
microscopic examination of H&E-stained tissue sections of the eye (retina [14]; in vivo): No changes were detected
duration of inhibition of MERTK phosphorylation in retinal tissue (retina [14]; post oral administration, ref Sayama et al. [2018]): up to 17 h

Source: paper PMC8837544, “Pharmacological inhibition of MERTK induces in vivo retinal degeneration: a multimodal imaging ocular safety assessment” (Archives of Toxicology, 2022)
